Entries after “also recorded” stand apart in the source; their conditions may differ. Where two headings read alike, the source gives them in different places.
How the values were obtained:
[1] = target: T1, BM3 A82F/F87V double mutant (DM) heme domain (Priestia megaterium, UniProt P14779, A83F/F88V); assay: biochemical; type: binding, Bacillus megaterium; conditions: for Delta Abs Peak (wavelength maximum of absorbance difference spectrum) / Delta Abs Trough (wavelength minimum of absorbance difference spectrum) / Delta Abs/Soret Peak / Soret Shift (final Soret wavelength at apparent saturation): DM BM3 heme domain; for Delta Abs/Soret Peak: maximal peak-minus-trough value divided by P450 Soret peak value; for Soret Shift (final Soret wavelength at apparent saturation): starting wavelength 418 nm
T1 construct: The BM3 heme domain proteins (WT and the DM A82F/F87V variant) used in this study were expressed as described in our previous studies; made in house; host or cells: E. coli BL21 (DE3)
T1 sequence (P14779 2-472 A83F/F88V): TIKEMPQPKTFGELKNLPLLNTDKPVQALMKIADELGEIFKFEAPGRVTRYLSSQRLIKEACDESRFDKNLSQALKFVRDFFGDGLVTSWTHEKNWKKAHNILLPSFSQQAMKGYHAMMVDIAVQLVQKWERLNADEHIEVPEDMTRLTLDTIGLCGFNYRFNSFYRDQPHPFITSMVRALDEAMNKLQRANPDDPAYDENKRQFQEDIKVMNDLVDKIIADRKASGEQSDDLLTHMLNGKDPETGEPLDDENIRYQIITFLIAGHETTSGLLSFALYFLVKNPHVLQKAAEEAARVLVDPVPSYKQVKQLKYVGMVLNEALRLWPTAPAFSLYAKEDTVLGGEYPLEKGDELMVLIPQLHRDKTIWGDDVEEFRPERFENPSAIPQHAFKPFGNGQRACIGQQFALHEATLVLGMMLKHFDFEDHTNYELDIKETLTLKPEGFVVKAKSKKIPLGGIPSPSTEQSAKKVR
Excerpt: (§1) This leads to dioxygen (O2) binding to heme iron and to the progression of the P450 catalytic cycle that leads to monooxygenation of the substrate. […] P450 UV-visible binding assays and other spectroscopic studies using azoles are often hindered by the low solubility of many of these drugs. […] The azoles used range widely in size and structure, and contain either an imidazole or a triazole functional group (or two triazole groups in the case of fluconazole). […] Spectral binding data were fitted using hyperbolic (Michaelis-Menten)[30] or tight-binding (Morrison)[31] equations, or by using the Hill function[32] in cases where there was a clear sigmoidal dependence of heme absorbance change on azole drug concentration.
(§2) Experiments were performed using a Cary 50 UV-Visible spectrophotometer (Agilent Technologies Ltd). WT and DM heme domains at concentrations of ~2–4 μM were used, and binding titrations were done by the addition of small (typically 0.2–0.4 μL) volumes of azole ligand stocks (1, 10 or 30 mM, to minimize amounts of solvent carrier used) to a 1 mL heme domain sample in a quartz cuvette. An extinction coefficient of 95 mM^−1 cm^−1 was used for the low-spin forms of the WT and DM heme domains. […] Azole drugs were obtained from Merck Chemicals (Nottingham, UK). All azole compounds used in these and other experiments done in this manuscript were sourced from Sigma Aldrich (Cambridge, UK).
(§3) Data were processed by the subtraction of the spectrum of each successive ligand-bound form (from a specific titration set) from the spectrum of the ligand-free enzyme. This produced a set of difference spectra (for each particular azole titration), from which wavelengths associated with the absorbance minimum (Amin) and maximum (Amax) were readily identified. For each titration point, an absorbance difference value was calculated as Amax minus Amin, using the same wavelength pair throughout an individual experiment. These values were then plotted against the relevant azole ligand concentrations used. […] Assays were done using 25 mM KPi (pH 7) at a constant temperature of 30 °C.

WT BM3 heme domain = target: T2, WT BM3 heme domain (Priestia megaterium, UniProt P14779); assay: biochemical; type: binding, Bacillus megaterium; conditions: for Delta Abs/Soret Peak: maximal peak-minus-trough value divided by P450 Soret peak value; for Soret Shift (final Soret wavelength at apparent saturation): starting wavelength 418 nm
T2 construct: The BM3 heme domain proteins (WT and the DM A82F/F87V variant) used in this study were expressed as described in our previous studies; made in house; host or cells: E. coli BL21 (DE3)
T2 sequence (P14779 2-472): as the sequence (P14779 2-472 A83F/F88V) above, with F82A, V87F counted along it
Excerpt: as §1, §2, §3

P450 BM3 (CYP102A1) = system: P450 BM3 (CYP102A1); parameters: method as in PMID 10191269; conditions: arachidonic acid as the substrate; cited from earlier work
[2] = DM (A82F/F87V) BM3 heme domain, 25 mM KPi pH 7, 30 °C

Row | SMILES | Delta Abs Peak (wavelength maximum of absorbance difference spectrum) [1] [nm] | Delta Abs Trough (wavelength minimum of absorbance difference spectrum) [1] [nm] | Delta Abs/Soret Peak [1] | Soret Shift (final Soret wavelength at apparent saturation) [1] [nm] | Kd [1, 2] [µM] | Kd ([1]; DM enzyme, Figure S1 legend, tight-binding (Morrison) fit) [µM] | Kd (WT BM3 heme domain) [µM] | Delta Abs Peak (wavelength maximum of absorbance difference spectrum) (WT BM3 heme domain; WT BM3 heme domain) [nm] | Delta Abs Trough (wavelength minimum of absorbance difference spectrum) (WT BM3 heme domain; WT BM3 heme domain) [nm] | Delta Abs/Soret Peak (WT BM3 heme domain; WT BM3 heme domain) | Soret Shift (final Soret wavelength at apparent saturation) (WT BM3 heme domain; WT BM3 heme domain) [nm] | Soret spectral shift / heme absorbance change on titration (in words) (WT BM3 heme domain; WT BM3 heme domain) | Tighter binding to DM heme domain than to WT heme domain ([1]; DM versus WT heme domain) | Kd (WT BM3 heme domain; Kd, WT BM3 heme domain, 25 mM KPi pH 7, 30 °C, NB = no binding seen in UV-visible spectroscopic titrations) [µM] | catalytic rate for substrate oxidation (P450 BM3 (CYP102A1))
1 | c1ccc(-c2ccc(C(c3ccccc3)n3ccnc3)cc2)cc1 (stereo not drawn) [Bifonazole] | 436 | 413 | 0.42 | 425 | 0.13 ± 0.05 | 0.13 ± 0.02 | 3.54 ± 0.05 | 434 | 413 | 0.43 | 423 |  |  |  | 
2 | Clc1ccc(CCC(Cn2ccnc2)Sc2c(Cl)cccc2Cl)cc1 (stereo not drawn) [Butoconazole nitrate] | 433 | 413 | 0.47 | 424 | 0.47 ± 0.02 |  | 3.8 ± 0.12 | 434 | 413 | 0.35 | 422 |  |  |  | 
3 | CC(C)(C)C(=O)C(Oc1ccc(Cl)cc1)n1ccnc1 (stereo not drawn) [Climbazole] | 430 | 408 | 0.50 | 424 | 0.32 ± 0.01 |  | 1.52 ± 0.02 | 433 | 413 | 0.43 | 424 |  |  |  | 
4 | Clc1ccc(C(Cn2ccnc2)OCc2ccc(Sc3ccccc3)cc2)c(Cl)c1 (stereo not drawn) [Fenticonazole nitrate] | 434 | 414 | 0.44 | 424 | 0.52 ± 0.03 |  | 1.89 ± 0.05 | 434 | 415 | 0.21 | 419 |  |  |  | 
5 | OC(Cn1cncn1)(Cn1cncn1)c1ccc(F)cc1F [Fluconazole] | 434 | 414 | 0.19 | 421 | 2.91 ± 0.2 |  |  |  |  |  |  | failed to induce a Soret spectral shift of sufficient extent to allow Kd determination |  |  | 
6 | Clc1ccc(C(Cn2ccnc2)OCc2c(Cl)cccc2Cl)c(Cl)c1 (stereo not drawn) [Isoconazole nitrate] | 435 | 415 |  |  | 0.44 ± 0.02 |  | 12 ± 0.5 | 436 | 415 |  |  |  |  |  | 
7 | CCC(C)n1ncn(-c2ccc(N3CCN(c4ccc(OCC5COC(Cn6cncn6)(c6ccc(Cl)cc6Cl)O5)cc4)CC3)cc2)c1=O (stereo not drawn) [Itraconazole] | 438 | 414 | 0.16 | 421 | 0.05 ± 0.01 |  |  |  |  |  |  | failed to induce a Soret spectral shift of sufficient extent to allow Kd determination; also recorded: no significant spectral shifts |  |  | 
8 | CC[C@@H]([C@H](C)O)n1ncn(-c2ccc(N3CCN(c4ccc(OC[C@@H]5CO[C@@](Cn6cncn6)(c6ccc(F)cc6F)C5)cc4)CC3)cc2)c1=O [Posaconazole] | 430 | 395 | 0.41 | 422 | 2.69 ± 0.05 |  |  |  |  |  |  | failed to induce a Soret spectral shift of sufficient extent to allow Kd determination; also recorded: no significant spectral shifts |  |  | 
9 | C[C@@H](c1nc(-c2ccc(C#N)cc2)cs1)[C@](O)(Cn1cncn1)c1ccc(F)cc1F [Ravuconazole] | 434 | 413 | 0.21 | 422 | 0.34 ± 0.02 |  |  |  |  |  |  | failed to induce a Soret spectral shift of sufficient extent to allow Kd determination; also recorded: no significant spectral shifts |  |  | 
10 | Clc1ccc(C(Cn2ccnc2)OCc2csc3c(Cl)cccc23)c(Cl)c1 (stereo not drawn) [Sertaconazole nitrate] | 433 | 413 | 0.45 | 423 | 0.46 ± 0.01 |  | 2.44 ± 0.14 | 439 | 416 | 0.08 | 419 |  |  |  | 
11 | Clc1ccc(C(Cn2ccnc2)OCc2ccsc2Cl)c(Cl)c1 (stereo not drawn) [Tioconazole] | 434 | 414 | 0.44 | 423 | 0.39 ± 0.03 |  |  | 434 | 414 | 0.29 | 422 |  | ~ 50 fold | 24.5 ± 1.1 | 
12 | C[C@@H](c1ncncc1F)[C@](O)(Cn1cncn1)c1ccc(F)cc1F [Voriconazole] | 435 | 414 | 0.21 | 420 | 1.9 ± 0.13 |  |  |  |  |  |  | failed to induce a Soret spectral shift of sufficient extent to allow Kd determination |  |  | 
13 | CCCCC/C=C\C/C=C\C/C=C\C/C=C\CCCC(=O)O [arachidonic acid] |  |  |  |  |  |  |  |  |  |  |  |  |  |  | ~ 285 s^−1

From publication PMC6367340, “Novel insights into P450 BM3 interactions with FDA-approved antifungal azole drugs” (Scientific Reports, 2019)
